Reference: patent US11850252B2, “Use of nor-ursodeoxycholic acid for reducing liver fat” (Dr. Falk Pharma GmbH, priority 2017, dated 2023)
Where “and” joins values, the source holds several entries; their conditions need not be identical. Equal values may be shown once.

Key:
Format in all cases: in vivo, human
[1] = test system: Patients with a clinical diagnosis of non-alcoholic hepatic steatosis; experiment: Cytokeratin 18 (M30, M65 fragments) in the course of the study; conditions: for mean value of Cytokeratin 18 (M30 fragment) / mean value of Cytokeratin 18 (M65 fragment): V2 baseline
From the text: In another embodiment, the patient to be treated has a serum level of cytokeratin 18 (M65) of less than 750 U/ml, or less than 600 U/ml, or less than 500 U/ml, or less than 400 U/ml, or less than 300 U/ml or even less than 250 U/ml. The level of the M65 fragment of cytokeratin-18 can be determined by known methods, e.g. by an enzyme-linked immunosorbent assay (ELISA)
In another embodiment, the patient to be treated has a serum level of cytokeratin 18 (M30) of less than 500 U/ml, or less than 400 U/ml, or less than 300 U/ml, or less than 200 U/ml, or less than 150 U/ml. The level of the M30 fragment of cytokeratin-18 can be determined by known methods, e.g. by an ELISA.
(§1) A double-blinded, randomized, placebo-controlled phase II clinical trial was conducted as described in the following.
(§2) Patients with a clinical diagnosis of non-alcoholic hepatic steatosis were randomized to a 12-week treatment period and a 4-week follow-up. Patients were divided into three groups. The first groups received 1,500 mg Nor-UDCA per day (6 capsules with 250 mg Nor-UDCA in each capsule). The second group received 500 mg Nor-UDCA per day (2 capsules with 250 mg Nor-UDCA in each capsule and 4 capsules with 250 mg placebo in each capsule). The third group received 6 capsules with 250 mg placebo in each capsule.

[2] = test system: Patients with a clinical diagnosis of non-alcoholic hepatic steatosis; experiment: Ultrasound examination of the liver (steatosis hepatis grade), phase II clinical trial
Experimental: as §1, §2
The ultrasound examination was performed at V1 or within 4 weeks before and 1 week after V1 and at V6.
The liver was scored by the most affected area.

[3] = test system: Patients with a clinical diagnosis of non-alcoholic hepatic steatosis; experiment: Hepatic fat fraction measured by MRI and/or MRS, phase II clinical trial
Experimental: as §1, §2
If available, magnetic resonance imaging/spectroscopy (MRI/MRS) examinations were performed at V1 or within 4 weeks before and 1 week after V1 and at V6. Both, MRI and MRS are MR-based methods to separate the liver signal into its water and fat components. The resonance frequencies corresponding to protons in water and to the dominant protons in fat are distinct, and can be quantified directly from the spectral tracing.
The following equation was to be used to calculate the hepatic fat fraction derived from chemical shift imaging (CSI) data: CSI hepatic fat fractionunoorrected=SIin phase−SIopposed phase/2×SIin phase
To account for signal intensity differences not dependent of the fat content, a region of interest was also placed in the spleen in the same image as the liver measurements were performed. To calculate the signal-intensity corrected (using the spleen measurements) hepatic fat fraction, the equation above will be adopted as follows: CSI hepatic fat fractionspleen correction=(SIin phase liver/SIspleen)−(SIopposed phase liver/SIspleen)/2×(SIin phase liver/SIspleen)
If the calculations lead to negative mean hepatic fat fraction values, these negative values were considered as a fat fraction of 0, because a negative value is not possible.
MRS were performed at 1.5 or 3.0 Tesla to determine hepatic triglyceride content (in %).

[4] = test system: Patients with a clinical diagnosis of non-alcoholic hepatic steatosis; experiment: Liver stiffness according to Fibroscan or ARFI, phase II clinical trial
Experimental: as §1, §2
A) If available, Fibroscan examinations were performed at V1 or within 4 weeks before and 1 week after V1 and at V6. For the purpose of this measurement, patients should be fasting.
Fibroscan is a non-invasive device (Echosens, France) for the detection steatosis hepatis by vibration-controlled transient elastography. It consists of a vibrator device coupled to an ultrasound system. The signal from this device allows a calculation of stiffness of scanned tissue, and thereby an assessment of the extent of disease. Results of liver elasticity are to be expressed by stiffness (kPa) and success rate (%).
During measurement, an ultrafast pulse echosequence is emitted (pulse repetition frequency of 6 kHz) during the propagation of the controlled shear wave. The acquisition lasts only 80 ms and strains induced in the liver by the propagation of the shear wave is measured using standard autocorrelation approach between successive ultrasound lines. Stiffness values were obtained in kPA.
Liver stiffness was measured using either of two probes (M-probe or XL-probe) and documented with the following respective thresholds for different stages:
Stage 0/1 (i.e. <stage 2): <7.0 kPa (threshold)
Stage 0/1 (i.e. <stage 2): <6.2 kPa (threshold)
B) If available, Acoustic radiation force impulse imaging (ARFI) examinations were performed at V1 or within 4 weeks before and 1 week after V1 and at V6. ARFI measurements were documented with the following thresholds for different stages:
Stage 0/1 (i.e. <stage 2): <1.34 m/s (threshold)

[5] = N500 (500 mg Nor-UDCA per day), V1 screening
[6] = N500 (500 mg Nor-UDCA per day), V6 week 12
[7] = N1500 (1,500 mg Nor-UDCA per day), V1 screening
[8] = N1500 (1,500 mg Nor-UDCA per day), V6 week 12
[9] = N500 (500 mg Nor-UDCA per day), V6-LOCF week 12
[10] = N1500 (1,500 mg Nor-UDCA per day), V6-LOCF week 12

CC(CC(=O)O)[C@H]1CCC2[C@H]3C(CC[C@@]21C)[C@@]1(C)CCC(O)C[C@H]1C[C@@H]3O (stereo partly shown) [Nor-UDCA, 24-nor-ursodeoxycholic acid]
change of mean Cytokeratin 18 (M30 fragment) during the study ([1]; N500 (500 mg/day)): −34.4 U/I | change of mean Cytokeratin 18 (M65 fragment) during the study ([1]; N500 (500 mg/day)): −106.0 U/I | mean value of Cytokeratin 18 (M30 fragment) ([1]; N500 (500 mg/day)): 389.4 U/I | mean value of Cytokeratin 18 (M65 fragment) ([1]; N500 (500 mg/day)): 590.2 U/I | change of mean Cytokeratin 18 (M30 fragment) during the study ([1]; N1500 (1,500 mg/day)): −30.3 U/I | change of mean Cytokeratin 18 (M65 fragment) during the study ([1]; N1500 (1,500 mg/day)): −80.6 U/I | mean value of Cytokeratin 18 (M30 fragment) ([1]; N1500 (1,500 mg/day)): 333.7 U/I | mean value of Cytokeratin 18 (M65 fragment) ([1]; N1500 (1,500 mg/day)): 519.9 U/I | Number (%) of patients, steatosis hepatis grade Mild steatosis (S1) [2, 5]: 21.2% | Number (%) of patients, steatosis hepatis grade Moderate steatosis (S2) [2, 5]: 45.5% | Number (%) of patients, steatosis hepatis grade No/minimal steatosis (S0) [2, 5]: 6.1% | Number (%) of patients, steatosis hepatis grade Severe steatosis (S3) [2, 5]: 27.3% | Number (%) of patients, steatosis hepatis grade Mild steatosis (S1) [2, 6]: 28.8% | Number (%) of patients, steatosis hepatis grade Moderate steatosis (S2) [2, 6]: 51.5% | Number (%) of patients, steatosis hepatis grade No/minimal steatosis (S0) [2, 6]: 3.0% | Number (%) of patients, steatosis hepatis grade Severe steatosis (S3) [2, 6]: 16.7% | Number (%) of patients, steatosis hepatis grade Mild steatosis (S1) [2, 7]: 26.6% | Number (%) of patients, steatosis hepatis grade Moderate steatosis (S2) [2, 7]: 53.1% | Number (%) of patients, steatosis hepatis grade No/minimal steatosis (S0) [2, 7]: 0.0% | Number (%) of patients, steatosis hepatis grade Severe steatosis (S3) [2, 7]: 20.3% | Number (%) of patients, steatosis hepatis grade Mild steatosis (S1) [2, 8]: 26.6% | Number (%) of patients, steatosis hepatis grade Moderate steatosis (S2) [2, 8]: 62.5% | Number (%) of patients, steatosis hepatis grade No/minimal steatosis (S0) [2, 8]: 0.0% | Number (%) of patients, steatosis hepatis grade Severe steatosis (S3) [2, 8]: 10.9% | Hepatic fat fraction measured by MRI and/or MRS, Mean ± SD [3, 5]: 14.6 ± 14.5% | Hepatic fat fraction measured by MRI and/or MRS, Mean ± SD [3, 9]: 15.5 ± 13.5% | Hepatic fat fraction measured by MRI and/or MRS, Mean ± SD [3, 7]: 21.3% and 21.3 ± 15.4% | Hepatic fat fraction measured by MRI and/or MRS, Mean ± SD [3, 10]: 16.3% and 16.3 ± 14.4% | decrease in the hepatic fat fraction ([3]; group receiving 500 mg): no substantial decrease | Number (%) of patients, liver stiffness Stage 0/1 [4, 5]: 62.5% | Number (%) of patients, liver stiffness Stage = 4 [4, 5]: 12.5% | Number (%) of patients, liver stiffness Stage ≥2 [4, 5]: 14.6% | Number (%) of patients, liver stiffness Stage ≥3 [4, 5]: 10.4% | Number (%) of patients, liver stiffness Stage 0/1 [4, 9]: 58.3% | Number (%) of patients, liver stiffness Stage = 4 [4, 9]: 10.4% | Number (%) of patients, liver stiffness Stage ≥2 [4, 9]: 22.9% | Number (%) of patients, liver stiffness Stage ≥3 [4, 9]: 8.3% | Number (%) of patients, liver stiffness Stage 0/1 [4, 7]: 55.6% | Number (%) of patients, liver stiffness Stage = 4 [4, 7]: 19.4% | Number (%) of patients, liver stiffness Stage ≥2 [4, 7]: 17.6% | Number (%) of patients, liver stiffness Stage ≥3 [4, 7]: 8.3% | Number (%) of patients, liver stiffness Stage 0/1 [4, 10]: 67.5% | Number (%) of patients, liver stiffness Stage = 4 [4, 10]: 15.0% | Number (%) of patients, liver stiffness Stage ≥2 [4, 10]: 12.5% | Number (%) of patients, liver stiffness Stage ≥3 [4, 10]: 5.0% | percentage of patients with stage 0/1 liver stiffness, change in the course of the study ([4]; group receiving 500 mg Nor-UDCA): decreased
